The test system of one test is HSFA2. Kind of test: Histone H4 acetylation level of HSFA2 by chromatin immunoprecipitation and quantitative PCR, Example 14. Format: in vivo, Arabidopsis thaliana (Col-0). The following applies: Arabidopsis thaliana; 0.4 mM in medium, 2 hours after application; read-out: histone H4 acetylation level of HSFA2, increase vs group not subjected to the treatment. The protocol:
A wild-type Arabidopsis thaliana strain (accession: Col-0) was used as an experimental material. Seeds were purchased from Inplanta Innovations Inc.
A liquid medium containing a ½ Murashige and Skoog Plant Salt Mixture (Nacalai) and 1 (w/v) % sucrose (FUJIFILM Wako) was used as a growth medium.
Arabidopsis thaliana seeds were sterilized with the use of a Kitchen Haiter® liquid (Kao Corporation) diluted to one-half concentration with distilled water for 3 minutes, washed 3 times with sterile distilled water, and then incubated at 4° C. overnight. The growth medium (100 ml) was prepared in a 300-ml flask, the incubated seeds were seeded therein, the flask was transferred to an incubator (TOMY), and shake culture was then initiated. The incubator was maintained at a temperature of 22° C. for a daily cycle of 16 hours light and 8 hours darkness, and the rotation speed of the shaker was set at 180 rpm.
A stock solution of N-acetylglutamic acid (Tokyo Chemical Industry Co., Ltd.) was added to Arabidopsis thaliana 7 days after seeding to the final concentration of 0 mM and 0.4 mM in the media, followed by incubation for 2 hours. Sample fixation following incubation was performed in accordance with Yamaguchi et al (Arabidopsis Book, Feb. 17, 2014; 12: e0170). […]

The subject of the next test is H1ZAT12. Kind of test: H1ZAT12 gene expression by real-time PCR, Example 13. The settings on record: 1 mM in medium, 20° C. for 2 hours, leaves; read-out: H1ZAT12 expression level, increase vs control. Format: in vivo, hop. An excerpt:
(§1) The materials as used in Example 4 were used.
(§2) The medium as used in Example 4 were used.
(§3) In order to design primers for the target genes necessary for gene expression analysis by real-time PCR, homologs of Arabidopsis thaliana oxidation stress-responsive genes in hop were searched for. The amino acid sequences of Arabidopsis thaliana ZAT10 (AGI code: AT1G27730) and ZAT12 (AGI code: AT5G59820) were obtained from TAIR (https://www.arabidopsis.org/), and the nucleotide sequences of the gene homologs were obtained using Hopbase (http:/hopbase.cgrb.oregonstate.edu/). […] As the reference gene, the nucleotide sequence of the homolog of Arabidopsis thaliana EF1α (AGI code: AT1G18070) was obtained. The hop homolog genes were designated as H1ZAT10, H1ZAT12, and HIEF1α, respectively.
(§4) The leaves in the first and the second nodes from the apical buds of the tissue-cultured seedlings were sampled 1.5 months after the initiation of subculture and inoculated into a liquid medium consisting of a ½ Murashige and Skoog Plant Salt Mixture and 2 (w/v) % glucose. Specifically, a liquid medium was dispensed at 5 ml/well to a 6-well microplate, and 5 hop leaves were mounted thereon. […]
(§5) Thereafter, the relative expression levels of the target genes upon N-acetylglutamic acid treatment were calculated by the ΔΔCt method.
On the technique in general: Quantitative PCR measures a nucleic acid by following its amplification.

Another test deals with H1ZAT10. As to the kind of experiment: H1ZAT10 gene expression by real-time PCR, Example 13. Format: in vivo, hop. The settings on record: 1 mM in medium, 20° C. for 2 hours, leaves; read-out: H1ZAT10 expression level, increase vs control.
Text: as §1, §2, §3, §4, §5

SMILES strings stand for the structures.

As to `CC(=O)N[C@@H](CCC(=O)O)C(=O)O` [N-acetylglutamic acid], the fold induction at 400 µM in the test on HSFA2 came out at 2. The fold induction at 1000 µM came to 1.9 in the test on H1ZAT12 and 1.7 in the test on H1ZAT10.

The record behind these values is patent publication US20260324636A1, “COMPOSITION FOR PROVIDING PLANT WITH STRESS RESISTANCE” (KIRIN HOLDINGS KABUSHIKI KAISHA, priority 2022, published 2026).
